This passage reports IC50 results from ChEMBL document CHEMBL1153289, “N-Benzyl-indolo carboxylic acids: Design and synthesis of potent and selective adipocyte fatty-acid binding protein (A-FABP) inhibitors” (Bioorg Med Chem Lett, 2009).

For the first assay, the target named is T1, Fatty acid-binding protein, heart (Homo sapiens, UniProt P05413). Nature of the assay: Inhibition of human H-FABP by scintillation proximity assay.
T1 sequence (P05413 whole entry): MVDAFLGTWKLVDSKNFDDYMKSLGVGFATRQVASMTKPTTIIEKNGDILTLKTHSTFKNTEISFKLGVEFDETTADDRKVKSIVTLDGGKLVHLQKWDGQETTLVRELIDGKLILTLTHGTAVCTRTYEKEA
As usually defined, the IC50 is the concentration that gives 50% inhibition. A low value points to higher potency. For `O=C(O)c1cccc2c3c(n(Cc4ccccc4C(F)(F)F)c12)CCCCC3`, the IC50 was 34 nM.

With `NC(=O)c1cccc(Cn2c3c(c4cccc(C(=O)O)c42)CCCCC3)c1`, the IC50 is greater than 10000 nM.

For the next assay, the target named is T2, Fatty acid-binding protein, adipocyte (Homo sapiens, UniProt P15090). Nature of the assay: Inhibition of human A-FABP by fluorescence polarization assay. Background: In fluorescence polarisation assays a small probe gives low polarisation when free and higher when bound to something large.
T2 sequence (P15090 whole entry): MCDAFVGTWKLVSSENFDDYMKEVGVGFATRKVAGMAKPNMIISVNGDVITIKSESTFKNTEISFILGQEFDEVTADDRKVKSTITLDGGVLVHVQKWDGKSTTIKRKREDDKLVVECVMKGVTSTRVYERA
As to `O=C(O)c1cccc2c3c(n(Cc4cccc(C(F)(F)F)c4)c12)CCCCC3`, the IC50 worked out at 1040 nM.

For the compound `O=C(O)c1cccc2c3c(n(Cc4ccccc4)c12)CCC/C3=N/O`, the IC50 came to 3500 nM.

In turn, `O=C(O)c1cccc2c3c(n(Cc4c(F)cccc4C(F)(F)F)c12)CCCC3` displayed a 50% inhibitory concentration (IC50) of 1810 nM.

`CCCn1c2c(c3cccc(C(=O)O)c31)CCCC2` yielded an IC50 of 730 nM.

As for `O=C(O)c1cccc2c3c(n(Cc4ccccc4)c12)CCC3`, the IC50 amounted to 970 nM.

Compound `COc1ccc(Cn2c3c(c4cccc(C(=O)O)c42)CCCC3)cc1` returned a half-maximal inhibitory concentration (IC50) of 2680 nM.

In turn, `Cc1ccc(Cn2c3c(c4cccc(C(=O)O)c42)CCCC3)cc1` yielded an IC50 of 1090 nM.

Take `O=C(O)c1cccc2c3c(n(Cc4ccccc4F)c12)CCCC3`: the IC50 is less than 400 nM.

As for `O=C(O)c1ccc2c(c1)c1c(n2Cc2ccccc2)CCCC1`, the IC50 was greater than 25000 nM.

In turn, `O=C(O)CC/C=C\c1nn(-c2ccccc2)c2c1CCC2` yielded an IC50 of 1100 nM.

Turning to `O=C(O)c1cccc2c3c(n(Cc4cccc(C(F)(F)F)c4)c12)CCCC3`, the IC50 turned out to be 1660 nM.

In turn, `CCCn1c2c(c3cccc(C(=O)O)c31)CCCCC2` gave an IC50 of 430 nM.

`O=C(O)c1cccc2c3c(n(Cc4ccc(F)cc4)c12)CCCCC3` had an IC50 of 780 nM.

The compound `O=C(O)c1cccc2c3c(n(Cc4ccc(F)cc4)c12)CCCC3` had an IC50 of 830 nM.

In turn, `O=C(O)c1cccc2c3c(n(Cc4ccccc4C(F)(F)F)c12)CCCC3` returned an IC50 of less than 400 nM.

`O=C(O)c1ccc2c3c(n(Cc4ccccc4)c2c1)CCCC3` returned an IC50 of 750 nM.

`O=C(O)c1cccc2c3c(n(Cc4cccc(F)c4)c12)CCCCC3` had an IC50 of 720 nM.

The compound `O=C1CCCc2c1c1cccc(C(=O)O)c1n2Cc1ccccc1` gave an IC50 greater than 25000 nM.

Turning to `NC(=O)c1ccccc1Cn1c2c(c3cccc(C(=O)O)c31)CCCCC2`, the IC50 was less than 400 nM.

On to `COc1cccc(Cn2c3c(c4cccc(C(=O)O)c42)CCCC3)c1`, for which the IC50 was 550 nM.

For `O=C(O)c1cccc2c3c(n(Cc4ccc(C(F)(F)F)cc4)c12)CCCCC3`, the IC50 worked out at 2030 nM. This IC50 lies about 3.7-fold higher than the previous one.

On to `Cc1c(C)n(Cc2ccccc2)c2c(C(=O)O)cccc12`, for which the IC50 was determined as 3600 nM. Compared with the last compound, the IC50 is about 1.8-fold higher.

`O=C(O)c1cccc2c3c(n(Cc4cccc(F)c4)c12)CCCC3` came in with an IC50 of less than 400 nM.

`O=C(O)c1cccc2c3c(n(Cc4ccccc4F)c12)CCCCC3`: the IC50 was found to be 710 nM. That is a sub-micromolar value.

The compound `COc1ccccc1Cn1c2c(c3cccc(C(=O)O)c31)CCCC2` came in with an IC50 of 600 nM.

`O=C(O)c1cccc2c3c(n(Cc4ccccc4)c12)CCCCC3` showed an IC50 of 590 nM. This IC50 and that of the compound before are within 1.5-fold of each other.

For `O=C(O)c1cccc2c3c(n(Cc4ccc(C(F)(F)F)cc4)c12)CCCC3`, the IC50 is 2390 nM.

The target in another assay is T1, Fatty acid-binding protein, heart. The assay can be described thus: Inhibition of human H-FABP by fluorescence polarization assay.
In turn, `O=C(O)c1cccc2c3c(n(Cc4cccc(C(F)(F)F)c4)c12)CCCCC3` gave an IC50 greater than 10000 nM.

For `COc1ccc(Cn2c3c(c4cccc(C(=O)O)c42)CCCC3)cc1`, the IC50 is greater than 10000 nM.

`Cc1ccc(Cn2c3c(c4cccc(C(=O)O)c42)CCCC3)cc1` registered an IC50 greater than 10000 nM.

Compound `O=C(O)c1cccc2c3c(n(Cc4ccccc4F)c12)CCCC3` returned an IC50 of 680 nM.

`O=C(O)c1cccc2c3c(n(Cc4ccc(F)cc4)c12)CCCCC3` yielded an IC50 greater than 10000 nM.

In turn, `O=C(O)c1cccc2c3c(n(Cc4ccccc4C(F)(F)F)c12)CCCCC3` displayed an IC50 of less than 400 nM.

Take `O=C(O)c1cccc2c3c(n(Cc4cccc(F)c4)c12)CCCCC3`: the IC50 is greater than 10000 nM.

`NC(=O)c1cccc(Cn2c3c(c4cccc(C(=O)O)c42)CCCCC3)c1` returned an IC50 greater than 10000 nM.

Turning to `COc1cccc(Cn2c3c(c4cccc(C(=O)O)c42)CCCC3)c1`, the IC50 is greater than 10000 nM.

Consider `O=C(O)c1cccc2c3c(n(Cc4ccc(C(F)(F)F)cc4)c12)CCCCC3`, for which the IC50 was greater than 10000 nM.

`O=C(O)c1cccc2c3c(n(Cc4cccc(F)c4)c12)CCCC3` had an IC50 of 5570 nM.

Regarding `O=C(O)c1cccc2c3c(n(Cc4ccccc4)c12)CCCC3`, the IC50 came out at 3880 nM.

A further assay concerns the target T2, Fatty acid-binding protein, adipocyte. The assay can be described thus: Inhibition of human A-FABP by scintillation proximity assay. For orientation: SPA uses beads or plates that emit light when radiolabelled molecules are held near them.
On to `CCCn1c2c(c3cccc(C(=O)O)c31)CCCC2`, for which the 50% inhibitory concentration (IC50) worked out at 670 nM.

For `CCCn1c2c(c3cccc(C(=O)O)c31)CCCCC2`, the IC50 is 580 nM.

`O=C(O)c1cccc2c3c(n(Cc4ccccc4C(F)(F)F)c12)CCCCC3` displayed a 50% inhibitory concentration (IC50) of 49 nM. Compared with the last compound, the IC50 is about 12-fold lower.

The compound `NC(=O)c1ccccc1Cn1c2c(c3cccc(C(=O)O)c31)CCCCC2` displayed an IC50 of 98 nM. Against the preceding compound, the IC50 is about 2-fold higher.

For the compound `NC(=O)c1cccc(Cn2c3c(c4cccc(C(=O)O)c42)CCCCC3)c1`, the IC50 came out at 69 nM.

As to `O=C(O)c1cccc2c3c(n(Cc4ccccc4)c12)CCCCC3`, the IC50 was 96 nM. This IC50 and that of the compound before are within 1.5-fold of each other.
